Laboratory results published in US8247377B2, “Non-steroidal glucocorticoid inhibitors and their use in treating inflammation, allergy and auto-immune conditions” (Glaxo Group Limited, priority 2006, dated 2012).

How the values were obtained:
NFκB = NFκB agonist assay in A549 SPAP cells; assay type: cell-based; settings: Homo sapiens; for Emax: A549, A549 SPAP cells, >85% = full agonist, ≧20% = partial or full agonist, read-out: average maximum asymptote in the NFkB assay; for IC50: A549 SPAP cells, TNFα 3.2 ng/ml, read-out: pIC50 for the NFkB assay (converted);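 as to average maximum asymptote in the NFkB assay: maximum inhibition of the TNFα-induced NFκB-driven signal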
How it was run: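 A549 cells stably carrying an ELAM/NFκB-driven SPAP reporter were pre-incubated 1 h at 37° C with compound, then stimulated with TNFα (3.2 ng/ml final) for 15 h. SPAP activity read colorimetrically with pNPP at 405 nm after ~1 h; pIC50 estimated from dose-response curves.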

glucocorticoid receptor = target: T1, glucocorticoid receptor (Homo sapiens, UniProt P04150); assay: Glucocorticoid receptor binding assay (fluorescence polarisation); settings: competition with Alexa 555 fluorescently-labelled dexamethasone derivative, full length glucocorticoid receptor; read-out: glucocorticoid binding pIC50 (converted)
T1 construct: a partially purified full length glucocorticoid receptor
T1 sequence (P04150 1-777): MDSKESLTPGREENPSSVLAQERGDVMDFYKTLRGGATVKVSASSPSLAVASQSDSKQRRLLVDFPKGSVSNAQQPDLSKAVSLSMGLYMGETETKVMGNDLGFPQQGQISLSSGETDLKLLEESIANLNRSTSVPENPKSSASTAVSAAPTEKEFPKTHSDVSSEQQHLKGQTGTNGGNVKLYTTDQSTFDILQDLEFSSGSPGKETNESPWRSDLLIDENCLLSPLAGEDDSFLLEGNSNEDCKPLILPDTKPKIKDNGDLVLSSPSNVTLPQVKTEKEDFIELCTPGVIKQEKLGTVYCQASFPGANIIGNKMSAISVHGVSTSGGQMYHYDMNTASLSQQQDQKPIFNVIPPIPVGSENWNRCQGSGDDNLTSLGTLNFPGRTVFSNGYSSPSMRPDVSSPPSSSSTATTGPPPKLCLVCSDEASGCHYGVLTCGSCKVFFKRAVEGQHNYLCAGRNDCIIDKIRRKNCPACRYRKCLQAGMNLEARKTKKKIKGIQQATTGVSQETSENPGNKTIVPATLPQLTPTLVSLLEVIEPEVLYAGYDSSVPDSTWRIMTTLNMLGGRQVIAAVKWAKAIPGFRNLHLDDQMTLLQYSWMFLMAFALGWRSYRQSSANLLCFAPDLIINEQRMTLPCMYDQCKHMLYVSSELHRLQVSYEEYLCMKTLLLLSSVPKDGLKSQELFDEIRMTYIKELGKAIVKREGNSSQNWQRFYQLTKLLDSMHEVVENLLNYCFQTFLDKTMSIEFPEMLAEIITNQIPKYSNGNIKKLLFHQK
How it was run: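 Compounds in DMSO incubated with fluorescent dexamethasone and partially purified full-length GR plus stabilising buffer components, 2 hrs at room temperature in the dark. Displacement read as decrease in fluorescence polarisation; pIC50 estimated from dose-response curves.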

MMTV promoter = assay: MMTV agonist assay in A549 MMTV cells; assay type: cell-based; settings: Homo sapiens, A549, 6 h, >85% = full agonist, >20% and <85% = partial or efficacy selective agonist, read-out: average maximum asymptote in the MMTV agonist assay
How it was run: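 A549 cells stably carrying an MMTV promoter-driven renilla luciferase reporter were exposed to compound for 6 h at 37 °C in DMEM with 10% FCS and 25 mM HEPES. Luminescence read after renilla substrate addition; pEC50 and maximum asymptote estimated from dose-response curves.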

Nc1c(C(=O)NCC(O)(CNC(=O)c2c(C(F)(F)F)cccc2C(F)(F)F)C(F)(F)F)cnn1-c1ccc(F)cc1 (racemic) [Example 15 (racemic), 5-amino-N-{2-[({[2,6-bis(trifluoromethyl)phenyl]carbonyl}amino)methyl]-3,3,3-trifluoro-2-hydroxypropyl}-1-(4-fluorophenyl)-1H-pyrazole-4-carboxamide]
Emax (NFκB): ≥ 20%
IC50 (NFκB): < 1000 nM
IC50 (glucocorticoid receptor): ≤ 316 nM
Emax (MMTV promoter): 20 to 85%

CCN(CC(O)(CNC(=O)c1cnn(-c2cccc(F)c2)c1N)C(F)(F)F)C(=O)c1c(F)cccc1F (racemic) [Example 38 (racemic), 5-amino-N-(2-{[[(2,6-difluorophenyl)carbonyl](ethyl)amino]methyl}-3,3,3-trifluoro-2-hydroxypropyl)-1-(3-fluorophenyl)-1H-pyrazole-4-carboxamide]
Emax (NFκB): > 85%
IC50 (NFκB): < 1000 nM
IC50 (glucocorticoid receptor): ≤ 316 nM
Emax (MMTV promoter): > 85%

CCN(CC(O)(CNC(=O)c1cnn(-c2ccc(F)cc2)c1N)C(F)(F)F)C(=O)c1c(C(F)(F)F)cccc1C(F)(F)F (racemic) [Example 27 (racemic), 5-amino-N-(2-{[{[2,6-bis(trifluoromethyl)phenyl]carbonyl}(ethyl)amino]methyl}-3,3,3-trifluoro-2-hydroxypropyl)-1-(4-fluorophenyl)-1H-pyrazole-4-carboxamide]
Emax (NFκB): > 85%
IC50 (NFκB): < 1000 nM
IC50 (glucocorticoid receptor): ≤ 316 nM
Emax (MMTV promoter): > 85%

Nc1c(C(=O)NCC(O)(CNC(=O)c2c(C(F)F)cccc2C(F)F)C(F)(F)F)cnn1-c1ccc(F)cc1 (racemic) [Example 43 (racemic), 5-Amino-N-{2-[({[2,6-bis(difluoromethyl)phenyl]carbonyl}amino)methyl]-3,3,3-trifluoro-2-hydroxypropyl}-1-(4-fluorophenyl)-1H-pyrazole-4-carboxamide]
Emax (NFκB): ≥ 20%
IC50 (NFκB): < 1000 nM
IC50 (glucocorticoid receptor): ≤ 316 nM
Emax (MMTV promoter): 20 to 85%

CCN(CC(O)(CNC(=O)c1cnn(-c2ccc(Cl)cc2)c1N)C(F)(F)F)C(=O)c1c(F)cccc1F (racemic) [Example 39 (racemic), 5-amino-1-(4-chlorophenyl)-N-(2-{[[(2,6-difluorophenyl)carbonyl](ethyl)amino]methyl}-3,3,3-trifluoro-2-hydroxypropyl)-1H-pyrazole-4-carboxamide]
Emax (NFκB): > 85%
IC50 (NFκB): < 1000 nM
IC50 (glucocorticoid receptor): ≤ 316 nM
Emax (MMTV promoter): > 85%

CCN(CC(O)(CNC(=O)c1cnn(-c2ccccc2F)c1N)C(F)(F)F)C(=O)c1c(F)cccc1F (racemic) [Example 42 (racemic), 5-amino-N-(2-{[[(2,6-difluorophenyl)carbonyl](ethyl)amino]methyl}-3,3,3-trifluoro-2-hydroxypropyl)-1-(2-fluorophenyl)-1H-pyrazole-4-carboxamide]
Emax (NFκB): > 85%
IC50 (NFκB): < 1000 nM
IC50 (glucocorticoid receptor): ≤ 316 nM
Emax (MMTV promoter): > 85%

Nc1c(C(=O)NCC(O)(CN(CCF)C(=O)c2c(Cl)cccc2OC(F)F)C(F)(F)F)cnn1-c1ccc(F)cc1 (racemic) [Example 31 (racemic), 5-amino-N-(2-{[({2-chloro-6-[(difluoromethyl)oxy]phenyl}carbonyl)(2-fluoroethyl)amino]methyl}-3,3,3-trifluoro-2-hydroxypropyl)-1-(4-fluorophenyl)-1H-pyrazole-4-carboxamide]
Emax (NFκB): > 85%
IC50 (NFκB): < 1000 nM
IC50 (glucocorticoid receptor): ≤ 316 nM
Emax (MMTV promoter): > 85%

Nc1c(C(=O)NCC(O)(CNC(=O)c2c(Cl)cccc2Cl)C(F)(F)F)cnn1-c1ccc(F)cc1 (single isomer, unassigned) [Example 3 Enantiomer 1, 5-Amino-N-[2-({[(2,6-dichlorophenyl)carbonyl]amino}methyl)-3,3,3-trifluoro-2-hydroxypropyl]-1-(4-fluorophenyl)-1H-pyrazole-4-carboxamide]
Emax (NFκB): ≥ 20%
IC50 (NFκB): < 1000 nM
IC50 (glucocorticoid receptor): ≤ 316 nM
Emax (MMTV promoter): 20 to 85%

CCN(CC(O)(CNC(=O)c1cnn(-c2cc(F)cc(F)c2)c1N)C(F)(F)F)C(=O)c1c(F)cccc1F (racemic) [Example 35 (racemic), 5-amino-1-(3,5-difluorophenyl)-N-(2-{[[(2,6-difluorophenyl)carbonyl](ethyl)amino]methyl}-3,3,3-trifluoro-2-hydroxypropyl)-1H-pyrazole-4-carboxamide]
Emax (NFκB): > 85%
IC50 (NFκB): < 1000 nM
IC50 (glucocorticoid receptor): ≤ 316 nM
Emax (MMTV promoter): > 85%

Nc1c(C(=O)NCC(O)(CN(CCF)C(=O)c2c(Cl)cccc2Cl)C(F)(F)F)cnn1-c1ccc(F)cc1 (racemic) [Example 28 (racemic), 5-amino-N-(2-{[[(2,6-dichlorophenyl)carbonyl](2-fluoroethyl)amino]methyl}-3,3,3-trifluoro-2-hydroxypropyl)-1-(4-fluorophenyl)-1H-pyrazole-4-carboxamide]
Emax (NFκB): > 85%
IC50 (NFκB): < 1000 nM
IC50 (glucocorticoid receptor): ≤ 316 nM
Emax (MMTV promoter): > 85%

CCN(CC(O)(CNC(=O)c1cnn(-c2ccc(F)cc2)c1N)C(F)(F)F)C(=O)c1ccccc1S(C)(=O)=O (single isomer, unassigned) [Example 10 Enantiomer 1, 5-Amino-N-{2-[(ethyl{[2-(methylsulfonyl)phenyl]carbonyl}amino)methyl]-3,3,3-trifluoro-2-hydroxypropyl}-1-(4-fluorophenyl)-1H-pyrazole-4-carboxamide]
Emax (NFκB): > 85%
IC50 (NFκB): < 1000 nM
IC50 (glucocorticoid receptor): ≤ 316 nM
Emax (MMTV promoter): > 85%

Nc1c(C(=O)NCC(O)(CNC(=O)c2c(Br)cccc2Br)C(F)(F)F)cnn1-c1ccc(F)cc1 (single isomer, unassigned) [Example 11 Enantiomer 1, 5-Amino-N-[2-({[(2,6-dibromophenyl)carbonyl]amino}methyl)-3,3,3-trifluoro-2-hydroxypropyl]-1-(4-fluorophenyl)-1H-pyrazole-4-carboxamide]
Emax (NFκB): ≥ 20%
IC50 (NFκB): < 1000 nM
IC50 (glucocorticoid receptor): ≤ 316 nM
Emax (MMTV promoter): 20 to 85%

Nc1c(C(=O)NCC(O)(CNC(=O)c2c(C(F)F)cccc2C(F)F)C(F)(F)F)cnn1-c1ccc(F)cc1 (single isomer, unassigned) [Example 43 Enantiomer 1, 5-Amino-N-{2-[({[2,6-bis(difluoromethyl)phenyl]carbonyl}amino)methyl]-3,3,3-trifluoro-2-hydroxypropyl}-1-(4-fluorophenyl)-1H-pyrazole-4-carboxamide]
Emax (NFκB): ≥ 20%
IC50 (NFκB): < 1000 nM
IC50 (glucocorticoid receptor): ≤ 316 nM
Emax (MMTV promoter): 20 to 85%

Nc1c(C(=O)NCC(O)(CNC(=O)c2c(Cl)cccc2OC(F)F)C(F)(F)F)cnn1-c1ccc(F)cc1 (racemic) [Example 14 (racemic), 5-Amino-N-(2-{[({2-chloro-6-[(difluoromethyl)oxy]phenyl}carbonyl)amino]methyl}-3,3,3-trifluoro-2-hydroxypropyl)-1-(4-fluorophenyl)-1H-pyrazole-4-carboxamide]
Emax (NFκB): ≥ 20%
IC50 (NFκB): < 1000 nM
IC50 (glucocorticoid receptor): ≤ 316 nM
Emax (MMTV promoter): 20 to 85%

CN(CC(O)(CNC(=O)c1cnn(-c2ccc(F)cc2)c1N)C(F)(F)F)C(=O)c1c(Cl)cccc1Br (racemic) [Example 16 (racemic), 5-amino-N-(2-{[[(2-bromo-6-chlorophenyl)carbonyl](methyl)amino]methyl}-3,3,3-trifluoro-2-hydroxypropyl)-1-(4-fluorophenyl)-1H-pyrazole-4-carboxamide]
Emax (NFκB): > 85%
IC50 (NFκB): < 1000 nM
IC50 (glucocorticoid receptor): ≤ 316 nM
Emax (MMTV promoter): > 85%

CCN(CC(O)(CNC(=O)c1cnn(-c2ccc(F)cc2)c1N)C(F)(F)F)C(=O)c1ccccc1S(C)(=O)=O (racemic) [Example 10 (racemic), 5-Amino-N-{2-[(ethyl{[2-(methylsulfonyl)phenyl]carbonyl}amino)methyl]-3,3,3-trifluoro-2-hydroxypropyl}-1-(4-fluorophenyl)-1H-pyrazole-4-carboxamide]
Emax (NFκB): > 85%
IC50 (NFκB): < 1000 nM
IC50 (glucocorticoid receptor): ≤ 316 nM
Emax (MMTV promoter): > 85%
